Data reported in ChEMBL document CHEMBL1240533, “Selectivity and potency of cyclin-dependent kinase inhibitors” (AAPS J, 2006).

The molecules below were run against Cyclin-dependent kinase 5 (Homo sapiens, UniProt Q00535).
Cyclin-dependent kinase 5, sequence (Q00535 whole entry): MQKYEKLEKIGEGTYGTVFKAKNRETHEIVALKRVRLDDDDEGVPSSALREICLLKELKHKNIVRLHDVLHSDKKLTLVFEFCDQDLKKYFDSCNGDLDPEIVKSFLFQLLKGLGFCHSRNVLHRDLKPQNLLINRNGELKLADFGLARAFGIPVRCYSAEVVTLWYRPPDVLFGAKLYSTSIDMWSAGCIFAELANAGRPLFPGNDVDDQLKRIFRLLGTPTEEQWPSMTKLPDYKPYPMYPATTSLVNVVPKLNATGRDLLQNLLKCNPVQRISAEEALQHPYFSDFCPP

| IC50 [µM] | SMILES |
| --- | --- |
| 25 | CCNc1cc(N[C@H]2CC[C@@H](O)CC2)nc(Nc2ccc3c(ccn3Cc3ccccc3)c2)n1 |
| 0.005 | COc1ccc(-c2[nH]nc3c2C(=O)c2c(NC(=O)NNC(=O)c4ccc(O)cc4)cccc2-3)cc1 |

Continued, molecule first:

| SMILES | IC50 [µM] |
| --- | --- |
| O=C(Nc1cc(C2CCC2)c[nH]1)Nc1cccc2ccncc12 | 0.005 |
| CC1(C)CC2(C)Nc3cc(-c4ccc5c(c4)NC4(C)CC(C)(C)NC(=S)N54)ccc3N2C(=S)N1 (stereo unspecified) | 25 |

What follows are molecules tested against Cyclin-dependent kinase 4 (Homo sapiens, UniProt P11802).
Cyclin-dependent kinase 4, sequence (P11802 whole entry): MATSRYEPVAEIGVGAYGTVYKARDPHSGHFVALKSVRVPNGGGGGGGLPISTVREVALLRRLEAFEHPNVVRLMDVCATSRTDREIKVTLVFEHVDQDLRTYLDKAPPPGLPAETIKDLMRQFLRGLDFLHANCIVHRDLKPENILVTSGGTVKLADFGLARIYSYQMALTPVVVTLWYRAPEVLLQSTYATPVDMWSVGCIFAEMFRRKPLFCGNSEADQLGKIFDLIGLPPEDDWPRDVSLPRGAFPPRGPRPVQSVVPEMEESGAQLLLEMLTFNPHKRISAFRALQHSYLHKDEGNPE

| IC50 [µM] | SMILES |
| --- | --- |
| 0.15 | Cc1ccc(F)c(Nc2nccc(-c3ccc(S(N)(=O)=O)cc3)n2)c1 |
| 2.7 | CCCCOc1c(C(=O)c2c(F)cc(C)cc2F)ccc2[nH]ncc12 |
| 0.81 | Nc1nc2ccc(C(=O)c3c(F)cccc3Cl)cc2n1Cc1c(F)cccc1F |

The next lines start with the molecule.

| SMILES | IC50 [µM] |
| --- | --- |
| O=C(Cc1ccc2ccccc2c1)Nc1cc(C2CC2)n[nH]1 | > 10 |
| O=C1C(c2c(O)[nH]c3ccc(S(=O)(=O)O)cc23)=Nc2ccccc21 | 0.2 |
| CN(C)CCNS(=O)(=O)c1ccc(Nc2cccc(-c3cnc4ccccn34)c2)cc1 | 0.26 |
| CC(C)(C)Nc1nc(C(F)(F)F)nc2ccc(Nc3ccccc3)cc12 | > 2.1 |
| O=C(Nc1ccccn1)Nc1cccc2c1[C@H]1CCCN1C2=O | 0.002 |
| Nc1nc(N)c(N=O)c(=O)[nH]1 | 0.23 |
| O=C1Cc2c([nH]c3ccc([N+](=O)[O-])cc23)-c2ccccc2N1 [ALSTERPAULLONE] | > 10 |

What follows are molecules tested against Cyclin-dependent kinase 2/cyclin A (Homo sapiens, UniProt P24941).
Assay type: protein-complex assay
Description: Inhibition of CDK2/cyclin A

| SMILES | IC50 [µM] |
| --- | --- |
| CC(=O)N[C@@H](CCCN=C(N)N)C(=O)N[C@@H](CCCN=C(N)N)C(=O)N[C@@H](CC(C)C)C(=O)N[C@@H](CC(N)=O)C(=O)N[C@@H](Cc1ccccc1)C(N)=O | > 50 |

The molecules below were run against Cyclin-dependent kinase 6 (Homo sapiens, UniProt Q00534).
Cyclin-dependent kinase 6, sequence (Q00534 whole entry): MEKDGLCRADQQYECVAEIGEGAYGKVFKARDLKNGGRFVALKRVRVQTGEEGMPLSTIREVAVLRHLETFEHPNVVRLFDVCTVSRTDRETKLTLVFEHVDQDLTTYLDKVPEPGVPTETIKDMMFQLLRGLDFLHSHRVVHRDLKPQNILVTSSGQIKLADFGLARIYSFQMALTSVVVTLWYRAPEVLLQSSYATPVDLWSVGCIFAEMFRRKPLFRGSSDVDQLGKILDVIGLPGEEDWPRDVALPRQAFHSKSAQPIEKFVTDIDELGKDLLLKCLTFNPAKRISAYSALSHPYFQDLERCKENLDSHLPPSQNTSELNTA

| IC50 [µM] | SMILES |
| --- | --- |
| 5.6 | CCNc1cc(N[C@H]2CC[C@@H](O)CC2)nc(Nc2ccc3c(ccn3Cc3ccccc3)c2)n1 |
